From patent US20230183243A1, “HETEROARYL DERIVATIVES AND PHARMACEUTICAL COMPOSITION COMPRISING SAME AS ACTIVE INGREDIENT” (VORONOI INC., priority 2019, published 2023)

What was measured:
MDA-MB-231 cells = assay: Inhibition of proliferation of triple-negative breast cancer cells, CellTiter-Glo; assay type: cell-based; conditions: Homo sapiens, 120 h; MDA-MB-231, cultured for 5 days
In short: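 MDA-MB-231 cells pre-cultured 24 h (5% CO2, 37 °C), then exposed to compound for 5 days at 12 three-fold dilutions, final 10 μM to 0.05 nM. Viability read by CellTiter-Glo luminescence after 10 min at 37 °C; growth inhibition calculated relative to untreated solvent-control cells.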

TTK = biological target: T1, TTK (Homo sapiens, UniProt P33981); assay: TTK enzyme activity, ADP-Glo kinase assay; assay type: biochemical; design: purchased SignalChem T20-10G; conditions: purified human TTK, ATP 10 μM, 25° C., 2 hours
T1 sequence (P33981 1-857): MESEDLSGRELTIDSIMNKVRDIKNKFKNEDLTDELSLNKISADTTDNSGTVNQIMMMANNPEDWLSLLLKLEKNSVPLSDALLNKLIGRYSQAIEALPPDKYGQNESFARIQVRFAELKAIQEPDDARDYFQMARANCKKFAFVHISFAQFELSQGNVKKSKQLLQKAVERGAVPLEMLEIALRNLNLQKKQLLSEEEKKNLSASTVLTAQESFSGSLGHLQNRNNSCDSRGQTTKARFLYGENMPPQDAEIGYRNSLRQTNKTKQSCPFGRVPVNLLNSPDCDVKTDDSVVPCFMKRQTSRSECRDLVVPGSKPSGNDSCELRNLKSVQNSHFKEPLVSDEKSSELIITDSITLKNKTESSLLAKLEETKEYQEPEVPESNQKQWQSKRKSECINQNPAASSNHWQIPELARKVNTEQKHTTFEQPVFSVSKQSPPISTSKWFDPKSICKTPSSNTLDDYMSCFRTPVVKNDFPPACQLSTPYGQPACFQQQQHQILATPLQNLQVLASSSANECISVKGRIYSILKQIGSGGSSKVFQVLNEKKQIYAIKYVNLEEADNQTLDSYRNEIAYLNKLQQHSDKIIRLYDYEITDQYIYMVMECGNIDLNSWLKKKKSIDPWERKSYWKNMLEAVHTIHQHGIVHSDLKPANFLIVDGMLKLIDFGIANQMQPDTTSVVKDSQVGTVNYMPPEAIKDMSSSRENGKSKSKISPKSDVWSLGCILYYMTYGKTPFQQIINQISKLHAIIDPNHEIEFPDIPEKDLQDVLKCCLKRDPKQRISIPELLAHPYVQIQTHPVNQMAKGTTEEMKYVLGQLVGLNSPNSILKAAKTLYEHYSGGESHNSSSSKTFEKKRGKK
In short: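 Purified human TTK (25 ng) incubated with 10 μM ATP and substrate (0.2 μg) for 2 h at 25 °C in Tris-HCl pH 7.4, MgCl2, BSA, DTT buffer. ADP formation read by ADP-Glo; inhibition calculated against untreated solvent control.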

SHP-77 = assay: Inhibition of proliferation of small cell lung cancer cells, CellTiter-Glo; assay type: cell-based; conditions: Homo sapiens, SHP77, 120 h; SHP-77, cultured for 5 days
In short: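 SHP-77 cells at 2,000–3,000 cells/well, cultured 24 h at 37° C, 5% CO2, then given 12 threefold compound dilutions, final 10 μM to 0.05 nM, for 5 days. Viability by CellTiter-Glo luminescence relative to solvent control. GI50 from concentration–response.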

N#Cc1c[nH]c2nc(Nc3ccc(N4CCCS4(=O)=O)c(F)c3)nc(NC3CCCC3)c12 [Example 173, 4-(cyclopentylamino)-2-((4-(1,1-dioxidoisothiazolidin-2-yl)-3-fluorophenyl)amino)-7H-pyrrolo[2,3-d] pyrimidine-5-carbonitrile]
GI50 (MDA-MB-231 cells): 100 to 1000 nM | IC50 (TTK): < 50 nM | GI50 (SHP-77): < 100 nM

COc1cc(-c2c(C)noc2C)c(F)cc1Nc1nc(NC2CCOCC2)c2c(C#N)c[nH]c2n1 [Example 102, 2-((4-(3,5-dimethylisoxazol-4-yl)-5-fluoro-2-methoxyphenyl)amino)-4-((tetrahydro-2H-pyran-4-yl)amino)-7H-pyrrolo[2,3-d] pyrimidine-5-carbonitrile]
GI50 (MDA-MB-231 cells): 100 to 1000 nM | IC50 (TTK): 200 to 1000 nM | GI50 (SHP-77): 100 to 1000 nM

Cn1nccc1-c1ccc(Nc2nc(NCC(C)(C)C)c3c(C#N)c[nH]c3n2)c2c1OCCO2 [Example 60, 2-((8-(1-methyl-1H-pyrazol-5-yl)-2,3-dihydrobenzo[b][1,4]dioxin-5-yl)amino)-4-(neopentylamino)-7H-pyrrolo[2,3-d] pyrimidine-5-carbonitrile]
GI50 (MDA-MB-231 cells): < 100 nM | IC50 (TTK): 50 to 200 nM | GI50 (SHP-77): < 100 nM

COc1cc(-c2cnn(C)c2)ccc1Nc1nc(NC2CCOCC2)c2c(C(F)(F)F)c[nH]c2n1 [Example 118, N^2-(2-methoxy-4-(1-methyl-1H-pyrazol-4-yl)phenyl)-N^4-(tetrahydro-2H-pyran-4-yl)-5-(trifluoromethy1)-7H-pyrrolo[2,3-d] pyrimidine-2,4-diamine]
GI50 (MDA-MB-231 cells): < 100 nM | IC50 (TTK): < 50 nM | GI50 (SHP-77): < 100 nM

COc1cc(-c2nncn2C)ccc1Nc1nc(NC2CCCC(F)(F)C2)c2c(C#N)c[nH]c2n1 (stereo not drawn) [Example 154, 4-((3,3-difluorocyclohexyl)amino)-2-((2-methoxy-4-(4-methyl-4H-1,2,4-triazol-3-yl)phenyl)amino)-7H-pyrrolo[2,3-d] pyrimidine-5-carbonitrile]
GI50 (MDA-MB-231 cells): < 100 nM | IC50 (TTK): < 50 nM | GI50 (SHP-77): < 100 nM

COc1cc(N2CCCS2(=O)=O)ccc1Nc1nc(NC2CCOCC2)c2c(C#N)c[nH]c2n1 [Example 165, 2-((4-(1,1-dioxidoisothiazolidin-2-yl)-2-methoxyphenyl)amino)-4-((tetrahydro-2H-pyran-4-yl)amino)-7H-pyrrolo[2,3-d] pyrimidine-5-carbonitrile]
GI50 (MDA-MB-231 cells): < 100 nM | IC50 (TTK): < 50 nM | GI50 (SHP-77): < 100 nM

COc1cc(-c2nncn2C)ccc1Nc1nc(NC2CCOCC2)c2c(C(F)(F)F)c[nH]c2n1 [Example 117, N^2-(2-methoxy-4-(4-methyl-4H-1,2,4-triazol-3-yl)phenyl)-N^4-(tetrahydro-2H-pyran-4-yl)-5-(trifluoromethyl)-7H-pyrrolo[2,3-d] pyrimidine-2,4-diamine]
GI50 (MDA-MB-231 cells): < 100 nM | IC50 (TTK): < 50 nM | GI50 (SHP-77): < 100 nM

N#Cc1c[nH]c2nc(Nc3ccc(N4CCCCS4(=O)=O)c(F)c3)nc(NC3CCOCC3)c12 [Example 58, 2-((4-(1,1-dioxido-1,2-thiazinan-2-yl)-3-fluorophenyl)amino)-4-((tetrahydro-2H-pyran-4-yl)amino)-7H-pyrrolo[2,3-d] pyrimidine-5-carbonitrile]
GI50 (MDA-MB-231 cells): < 100 nM | IC50 (TTK): < 50 nM | GI50 (SHP-77): < 100 nM

COc1cc(-c2cccc(O)c2)ccc1Nc1nc(NC2CCOCC2)c2c(C#N)c[nH]c2n1 [Example 141, 2-((3′-hydroxy-3-methoxy-[1,1′-biphenyl]-4-yl)amino)-4-((tetrahydro-2H-pyran-4-yl)amino)-7H-pyrrolo[2,3-d] pyrimidine-5-carbonitrile]
GI50 (MDA-MB-231 cells): < 100 nM | IC50 (TTK): < 50 nM | GI50 (SHP-77): < 100 nM

Cn1nccc1-c1ccc(Nc2nc(NC3CCOCC3)c3c(C(F)(F)F)c[nH]c3n2)c2c1OCCO2 [Example 107, N^2-(8-(1-methyl-1H-pyrazol-5-yl)-2,3-dihydrobenzo[b][1,4]dioxin-5-yl)-N^4-(tetrahydro-2H-pyran-4-yl)-5-(trifluoromethyl)-7H-pyrrolo[2,3-d] pyrimidine-2,4-diamine]
GI50 (MDA-MB-231 cells): < 100 nM | IC50 (TTK): 50 to 200 nM | GI50 (SHP-77): < 100 nM
